Like-named read-outs stand apart in the source and are kept apart here.
Experiments:
L6 rat myotubes [1] = assay: Protein synthesis, [3H]-phenylalanine incorporation in myotubes; format: cell-based; conditions: for Protein synthesis (% increase over control): 4 h; for maximum increases in protein synthesis: dose response 0.3-30 μM (FIG. 8A); for increase in protein synthesis above control levels: 4 h (FIG. 2A)
Summary of the method: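 Differentiated L6 rat myotubes (2% serum, 7–9 days) treated in triplicate in serum-free DMEM with compound (10 μM) or 0.1% ethanol vehicle plus 0.5 μCi/mL [3H]-phenylalanine for 4 h. TCA-precipitated protein counted by scintillation, normalised to total protein; IGF-1 6.5 nM positive control.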

[2] = tested on: AKT (Ser473) phosphorylation in L6 myotubes; assay: AKT (Ser473) phosphorylation, Western blot; format: cell-based, rat; conditions: for activation of AKT: after 1 h
Experimental: In some aspects, Western blot analyses were carried out. Fully differentiated L6 myotubes were cultured as described above, and whole cell extracts were prepared in ice-cold RIPA buffer supplemented with 10 mM sodium fluoride, 2 mM sodium orthovanadate, 1 mM PMSF, and protease inhibitor cocktail (Sigma) and centrifuged at 12,000 g for 20 min at 4° C. Equal amounts of protein (50 μg) from the supernatants were separated on 10% SDS polyacrylamide gels and blotted onto the nitrocellulose membrane. Western blot detection was carried out with monoclonal phospho-AKT (Ser473) antibodies according to the manufacturer's instructions (Cell Signaling Technology, Danvers, Mass.). After being washed, the blots were incubated with an anti-rabbit peroxidase-labeled secondary antibody and visualized using ECL Western Blotting Detection Reagent (GE Healthcare, Piscataway, N.J.). After being stripped, the same blots were probed with total AKT antibodies to serve as loading controls.

[3] = Cytotoxicity, MTT assay in 3T3 fibroblasts; format: cell-based, mouse; conditions: mouse
Experimental: (§1) FIG. 9. Cell survival curves as measured by MTT assay for brassinosteroids 1-9 against the murine fibroblast cell line NIH-3T3. Cells were incubated with various concentrations of brassinosteroids (0.3-30 μM) for 24 h at 37° C. The mean absorbance of the control cells represented 100% cell proliferation, and the mean absorbance of treated cells was related to control values to determine sensitivity. Error bars represent standard error (n=6) from mean cell proliferation as determined by repeated experiments.
(§2) In various aspects, cell viability is measured and the effects of doses of compound and test reagents are tested in cell lines. In some aspects, cell viability was measured by the MTT (3-(4,5-Dimethylthiazol-2-yl)-2,5-diphenyltetrazolium bromide) assay in triplicate (Mosmann et al., J. Immunol. Methods 65:55-63, 1983) and quantified spectrophotometrically at 550 nm using a microplate reader (Molecular Devices, Sunnyvale, Calif.).
(§3) 3T3 fibroblasts were seeded in a 96-well flat bottom plate at a density of 1×10^4 cells/well. Cell viability was measured by an MTT (3-(4,5-Dimethylthiazol-2-yl)-2,5-diphenyltetrazolium bromide) assay in triplicate (0.3-30 μM of test substance for […]) essentially as described by Mosmann (J. Immunol. Methods 65, 55-63, 1983) and quantified spectrophotometrically at 550 nm using a microplate reader (Molecular Devices, Sunnyvale, Calif.). […] For cell proliferation studies, cells were treated in triplicate with 0.1-10 μM of test substance for 24 h and assayed using a BrdU (5-bromo-2′-deoxyuridine) kit from Amersham (Uppsala, Sweden).

L6 rat myotubes [4] = assay: Protein degradation, release of acid-soluble [3H]-phenylalanine; format: cell-based; conditions: for decrease in protein degradation vs control levels: 1 μM, 4 h
[5] = tested on: NIH 3T3 murine fibroblast cell line; assay: Cytotoxicity, MTT assay in 3T3 fibroblasts; format: cell-based, mouse
Experimental: as §1, §2, §3

3T3 mouse fibroblasts = assay: Cell proliferation, BrdU assay; format: cell-based; conditions: 24 h
Experimental: as §3

## CC[C@@H](C(C)C)[C@H](O)[C@@H](O)[C@@H](C)[C@H]1CC[C@H]2[C@@H]3CC(=O)[C@H]4C[C@H](O)[C@H](O)C[C@]4(C)[C@H]3CC[C@]12C [Compound 2, (22S,23S,24S)-2α,3α, 22,23-tetrahydroxy-24-ethyl-5α-cholestan-6-one]
L6 rat myotubes [1]; 10 μM
  Protein synthesis (% increase over control): 41.0 ± 2.7 %
L6 rat myotubes [1]; 10 μM, listed as (22S,23S)-homocastasterone
  Protein synthesis (% increase over control): 41.0±2.7%
L6 rat myotubes [1]
  maximum increases in protein synthesis: 40.7±4.9%
[2]
  activation of AKT: significant activation of AKT
[3]
  IC50: > 30 µM
L6 rat myotubes [4]
  decrease in protein degradation vs control levels: 8.7±1.7%
L6 rat myotubes [4]; 4 h dose response
  concentration at which inhibition of protein degradation reached a plateau: 10 µM

## CC[C@@H](C(C)C)[C@H](O)[C@@H](O)[C@@H](C)[C@H]1CC[C@H]2[C@@H]3COC(=O)[C@H]4C[C@H](O)[C@H](O)C[C@]4(C)[C@H]3CC[C@]12C [Compound 1, (22S,23S,24S)-2α,3α,22,23-tetrahydroxy-24 ethyl-β-homo-7-oxo-5α-cholestane-6-one]
L6 rat myotubes [1]; 1 μM
  increase in protein synthesis above control levels: 12.4±2.3%
L6 rat myotubes [1]; 3 μM, 1-24 h study
  time at which stimulated protein synthesis peaked: 3 h
L6 rat myotubes [1]; 10 μM
  Protein synthesis (% increase over control): 37.2 ± 5.9 %
  increase in protein synthesis above control levels: 34.9±3.1%
L6 rat myotubes [1]; 10 μM, listed as HB
  Protein synthesis (% increase over control): 37.2±5.9%
L6 rat myotubes [1]; 20 μM
  increase in protein synthesis above control levels: 36.9±2.9%
L6 rat myotubes [1]
  maximum increases in protein synthesis: 36.9±2.9%
L6 rat myotubes [1]; read-out: 50% effective dose for protein synthesis
  EC50: 3 µM
[2]
  time to AKT phosphorylation: 30 min
  activation of AKT: significant activation of AKT
[2]; 3 μM, 1 h
  stimulation of Ser473 phosphorylation of AKT: up to 3 fold
[5]; 3T3 mouse fibroblasts, MTT, 0.3-30 μM, read-out: Cell cytotoxicity, IC50
  IC50: > 30 µM
[5]; tested up to 30 μM
  cytotoxicity in vitro: no cytotoxicity
3T3 mouse fibroblasts
  Cell proliferation at 5 μM, % of control: 37.7 ± 3.4 %
L6 rat myotubes [4]
  decrease in protein degradation vs control levels: 8.2±0.6%
L6 rat myotubes [4]; 3 μM HB, 1-4 h study
  time at which suppression of protein degradation reached a plateau: 3 h

## CC[C@@H](C(C)C)[C@H](O)[C@@H](O)[C@@H](C)[C@H]1CC[C@H]2[C@@H]3CC(=O)N[C@H]4C[C@H](O)[C@H](O)C[C@]4(C)[C@H]3CC[C@]12C [Compound 5, (22S,23S,24S)-2α,3α-22,23-tetrahydroxy-24-ethyl-B-homo-6-aza-5α-cholestan-7-one]
L6 rat myotubes [1]; 10 μM
  effect of structural modification on activation of protein synthesis, in words: complete loss of activation of protein synthesis
  Protein synthesis (% increase over control): 3.3 ± 12.4%
[5]
  IC50: 12.5 µM
[5]; 3T3/NIH murine fibroblasts, MTT, 24 h (FIG. 9), read-out: half-maximal inhibitory concentration (IC50), cell proliferation
  IC50: 12.5 µM
